Legend:
[1] = molecular target: T1, Sodium/hydrogen exchanger 3 (Homo sapiens, UniProt P48764); experiment: Inhibition of human NHE3 expressed in LAP1 cell assessed as intracellular pH recovery measured for 2 mins by CECF-AM dye based FLIPR assay
T1 sequence (P48764 whole entry): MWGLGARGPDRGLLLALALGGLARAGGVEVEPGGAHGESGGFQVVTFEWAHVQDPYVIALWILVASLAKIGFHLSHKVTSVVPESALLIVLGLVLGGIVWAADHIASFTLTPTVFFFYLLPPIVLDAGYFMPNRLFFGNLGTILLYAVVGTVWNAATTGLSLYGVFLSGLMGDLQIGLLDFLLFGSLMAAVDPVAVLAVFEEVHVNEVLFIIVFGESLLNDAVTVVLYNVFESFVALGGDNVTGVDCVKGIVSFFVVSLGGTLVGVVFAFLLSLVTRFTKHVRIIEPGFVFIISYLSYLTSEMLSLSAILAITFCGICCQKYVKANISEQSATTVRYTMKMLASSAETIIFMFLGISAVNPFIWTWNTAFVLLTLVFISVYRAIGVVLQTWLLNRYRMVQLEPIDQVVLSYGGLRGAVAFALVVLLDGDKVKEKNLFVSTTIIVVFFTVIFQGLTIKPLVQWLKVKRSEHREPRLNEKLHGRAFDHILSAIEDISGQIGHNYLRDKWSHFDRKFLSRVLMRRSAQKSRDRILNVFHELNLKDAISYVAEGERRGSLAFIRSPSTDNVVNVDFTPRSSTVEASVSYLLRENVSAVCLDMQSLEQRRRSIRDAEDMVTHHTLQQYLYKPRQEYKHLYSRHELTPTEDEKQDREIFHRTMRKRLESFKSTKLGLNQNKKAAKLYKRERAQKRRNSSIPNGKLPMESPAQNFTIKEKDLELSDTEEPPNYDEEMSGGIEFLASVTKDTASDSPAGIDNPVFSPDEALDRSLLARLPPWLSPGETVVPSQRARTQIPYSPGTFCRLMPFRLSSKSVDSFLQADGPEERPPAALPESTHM

[2] = Permeability in human Caco2/TC7 cells assessed as total flux at 20 uM incubated for 2 hrs by LC-MS/MS method; type: ADME, cell-based; conditions: Caco-2, read-out: permeability
[3] = molecular target: Cytochrome P450 2D6 (Homo sapiens, UniProt P10635)
Chain of Cytochrome P450 2D6 (P10635 whole entry): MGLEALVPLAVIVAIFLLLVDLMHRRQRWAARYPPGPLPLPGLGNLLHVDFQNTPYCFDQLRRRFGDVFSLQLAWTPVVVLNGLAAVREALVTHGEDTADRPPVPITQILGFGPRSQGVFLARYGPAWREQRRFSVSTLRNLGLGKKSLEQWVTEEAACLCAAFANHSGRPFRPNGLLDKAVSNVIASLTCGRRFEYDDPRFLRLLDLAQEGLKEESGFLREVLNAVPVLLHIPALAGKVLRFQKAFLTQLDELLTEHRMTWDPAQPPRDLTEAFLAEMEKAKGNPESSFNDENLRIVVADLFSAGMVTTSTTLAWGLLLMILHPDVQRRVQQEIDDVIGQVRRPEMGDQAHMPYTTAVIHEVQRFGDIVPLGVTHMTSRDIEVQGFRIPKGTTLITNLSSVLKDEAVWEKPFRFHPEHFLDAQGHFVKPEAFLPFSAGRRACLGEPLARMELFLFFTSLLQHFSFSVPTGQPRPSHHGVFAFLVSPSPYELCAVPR
Description: Inhibition of CYP2D6 in pooled human hepatic microsomes using dextromethorphan substrate in presence of NADPH

CS(=O)(=O)c1ccc(O[C@H]2c3cc(Cl)cc(Cl)c3C[C@@H]2N2CC[C@H](F)C2)cc1
IC50 [1]: 883 nM

CS(=O)(=O)c1ccc(O[C@H]2c3cc(Cl)cc(Cl)c3C[C@@H]2N2CCCN(CCO)CC2)cc1
IC50 [1]: 30 nM

Cc1noc(C)c1-c1ccc(O[C@H]2c3ccccc3C[C@@H]2N2CCCC2)cc1
IC50 [1]: 411 nM

CS(=O)(=O)c1ccc(O[C@H]2c3cc(Cl)cc(Cl)c3C[C@@H]2N2CC[C@@H](F)C2)cc1
IC50 [1]: 166 nM

CN1C[C@@H]2CN([C@H]3Cc4c(Cl)cc(Cl)cc4[C@@H]3Oc3ccc(S(C)(=O)=O)cc3)C[C@@H]2C1
Papp at 2 h, 20 µM [2]: 6 ×10⁻⁶ cm/s | IC50 [3]: < 300 nM | IC50 [1]: 241 nM

CS(=O)(=O)c1ccc(O[C@H]2c3cc(Cl)cc(Cl)c3C[C@@H]2N2CCC[C@@H](NCCO)C2)cc1
IC50 [1]: 4 nM

N#Cc1ccc(O[C@H]2c3ccccc3C[C@@H]2N2CCCC2)cc1
IC50 [1]: 4500 nM

CS(=O)(=O)c1ccc(OC2c3cc(Cl)cc(Cl)c3CC2N2C[C@H]3CNC[C@H]3C2)cc1 (single isomer, unassigned)
Papp at 2 h, 20 µM [2]: 0.07 ×10⁻⁶ cm/s | IC50 [3]: 900 nM | IC50 [1]: 28 nM

CC(=O)Nc1cc(O[C@H]2c3ccccc3C[C@@H]2N2CCCC2)ccn1
IC50 [1]: 4530 nM

CS(=O)(=O)c1ccc(O[C@H]2c3cc(Cl)cc(Cl)c3C[C@@H]2N2CC(O)C2)cc1
IC50 [1]: 1640 nM

Cc1c(O[C@H]2c3ccccc3C[C@@H]2N2CCCC2)ccc(-n2c(C)nnc2C)c1C
IC50 [1]: 170 nM

CS(=O)(=O)c1ccc(O[C@H]2c3cc(Cl)cc(Cl)c3C[C@@H]2N2CCC3(CCNC3)C2)cc1 (stereo partly drawn)
IC50 [1]: 11 nM

CS(=O)(=O)c1ccc(O[C@H]2c3cc(Cl)cc(Cl)c3C[C@@H]2N2CCC[C@@H](N)C2)cc1
IC50 [1]: 4 nM

CS(=O)(=O)c1ccc(O[C@H]2c3cc(Cl)c(Cl)cc3C[C@@H]2N2CCCNCC2)cc1 (racemic)
IC50 [1]: 6060 nM

CC(=O)Nc1cccc(O[C@H]2c3ccccc3C[C@@H]2N2CCCC2)c1
Papp at 2 h, 20 µM [2]: 9.1 ×10⁻⁶ cm/s | IC50 [3]: 640 nM | IC50 [1]: 438 nM

N[C@@H]1CCCN([C@H]2Cc3c(Cl)cc(Cl)cc3[C@@H]2Oc2ccc(-n3cncn3)cc2)C1
Papp at 2 h, 20 µM [2]: 2.4 ×10⁻⁶ cm/s | IC50 [3]: < 300 nM | IC50 [1]: 30 nM

CS(=O)(=O)c1ccc(O[C@H]2c3cc(Cl)ccc3C[C@@H]2N2CCNCC2)cc1 (racemic)
IC50 [1]: 540 nM

Cc1nncn1-c1ccc(O[C@H]2c3ccccc3C[C@@H]2N2CCCC2)cc1
IC50 [1]: 640 nM

c1ccc2c(c1)C[C@H](N1CCCC1)[C@H]2Oc1cccc2cccnc12
IC50 [1]: 9520 nM

O=C1CCC(=O)N1c1cccc(O[C@H]2c3ccccc3C[C@@H]2N2CCCC2)c1
IC50 [1]: 2960 nM

CS(=O)(=O)c1ccc(O[C@H]2c3c(ccc(Cl)c3Cl)C[C@@H]2N2CCCNCC2)cc1
IC50 [1]: 43 nM

c1ccc2c(c1)C[C@H](N1CCCC1)[C@H]2Oc1ccc(-c2nccs2)cc1
IC50 [1]: 1710 nM

NS(=O)(=O)c1ccc(O[C@H]2c3ccccc3C[C@@H]2N2CCCC2)c(Cl)c1Cl
Papp at 2 h, 20 µM [2]: 13.2 ×10⁻⁶ cm/s | IC50 [3]: 400 nM | IC50 [1]: 123 nM

Cc1nnc(C)n1-c1ccc(O[C@H]2c3ccccc3C[C@@H]2N2CCCC2)c(Cl)c1
Papp at 2 h, 20 µM [2]: 6.7 ×10⁻⁶ cm/s | IC50 [3]: 730 nM | IC50 [1]: 78 nM

N[C@@H]1CCCN([C@H]2Cc3c(Cl)cc(Cl)cc3[C@@H]2Oc2ccc(S(N)(=O)=O)c(Cl)c2Cl)C1
Papp at 2 h, 20 µM [2]: 0.6 ×10⁻⁶ cm/s | IC50 [3]: 1500 nM | IC50 [1]: 0.2 nM

C[C@@H]1CN([C@H]2Cc3c(Cl)cc(Cl)cc3[C@@H]2Oc2ccc(S(C)(=O)=O)cc2)CCN1
Papp at 2 h, 20 µM [2]: 5.1 ×10⁻⁶ cm/s | IC50 [1]: 20 nM

CS(=O)(=O)c1ccc(O[C@H]2c3cc(Cl)cc(Cl)c3C[C@@H]2N2CC[C@H](O)C2)cc1
IC50 [1]: 384 nM

Cn1ccn(-c2cccc(O[C@H]3c4ccccc4C[C@@H]3N3CCCC3)c2)c1=O
Papp at 2 h, 20 µM [2]: 9.8 ×10⁻⁶ cm/s | IC50 [3]: < 300 nM | IC50 [1]: 197 nM

O=c1[nH]ccn1-c1cccc(O[C@H]2c3ccccc3C[C@@H]2N2CCCC2)c1
Papp at 2 h, 20 µM [2]: 9.8 ×10⁻⁶ cm/s | IC50 [3]: 3800 nM | IC50 [1]: 281 nM

CS(=O)(=O)c1ccc(O[C@H]2c3cc(Cl)cc(Cl)c3C[C@@H]2N2CCCNCC2)cc1
Papp at 2 h, 20 µM [2]: 1.6 ×10⁻⁶ cm/s | IC50 [3]: < 300 nM | IC50 [1]: 6 nM

CS(=O)(=O)c1ccc(O[C@H]2c3ccccc3C[C@@H]2N2CCCC2)cc1
Papp at 2 h, 20 µM [2]: 21.5 ×10⁻⁶ cm/s | IC50 [3]: < 300 nM | IC50 [1]: 572 nM

COCCN1CCCN([C@H]2Cc3c(Cl)cc(Cl)cc3[C@@H]2Oc2ccc(S(C)(=O)=O)cc2)CC1
Papp at 2 h, 20 µM [2]: 11 ×10⁻⁶ cm/s | IC50 [3]: < 300 nM | IC50 [1]: 64 nM

Cc1nnc(C)n1-c1ccc(O[C@H]2c3ccccc3C[C@@H]2N2CCCC2)cc1
IC50 [1]: 345 nM

NS(=O)(=O)c1ccc(O[C@H]2c3ccccc3C[C@@H]2N2CCCC2)cc1
IC50 [1]: 500 nM

CS(=O)(=O)c1ccc(O[C@H]2c3cc(Cl)cc(Cl)c3C[C@@H]2N2CCCNCC2)c(Cl)c1
IC50 [1]: 2 nM

Cc1nnc(C2CC2)n1-c1ccc(O[C@H]2c3ccccc3C[C@@H]2N2CCCC2)cc1
IC50 [1]: 272 nM

CN1CCN([C@H]2Cc3c(Cl)cc(Cl)cc3[C@@H]2Oc2ccc(S(C)(=O)=O)cc2)CC1
IC50 [1]: 4040 nM

CS(=O)(=O)c1ccc(O[C@H]2c3cc(F)cc(Cl)c3C[C@@H]2N2CCNCC2)cc1 (racemic)
IC50 [1]: 123 nM

CS(=O)(=O)c1ccc(O[C@H]2c3cc(F)ccc3C[C@@H]2N2CCNCC2)cc1 (racemic)
IC50 [1]: 3490 nM

CS(=O)(=O)c1ccc(O[C@H]2c3ccccc3C[C@@H]2N2CCNCC2)cc1
IC50 [1]: 6680 nM

N[C@@H]1CCCN([C@H]2Cc3c(Cl)cc(Cl)cc3[C@@H]2Oc2ccc(-n3ccnc3)cc2)C1
Papp at 2 h, 20 µM [2]: 1.1 ×10⁻⁶ cm/s | IC50 [3]: < 300 nM | IC50 [1]: 23 nM

O=C1OCCN1c1cccc(O[C@H]2c3ccccc3C[C@@H]2N2CCCC2)c1
IC50 [1]: 955 nM

NC(=O)Nc1cccc(O[C@H]2c3ccccc3C[C@@H]2N2CCC[C@@H](N)C2)c1
Papp at 2 h, 20 µM [2]: 0.04 ×10⁻⁶ cm/s | IC50 [3]: 8600 nM | IC50 [1]: 330 nM

CC(=O)Nc1cccc(O[C@H]2c3ccccc3C[C@@H]2N2CCC[C@@H](N)C2)c1
Papp at 2 h, 20 µM [2]: 0.03 ×10⁻⁶ cm/s | IC50 [3]: 5100 nM | IC50 [1]: 440 nM

O=C1CCCN1c1cccc(O[C@H]2c3ccccc3C[C@@H]2N2CCCC2)c1
IC50 [1]: 3520 nM

O=C1OCc2cc(O[C@H]3c4ccccc4C[C@@H]3N3CCCC3)ccc21
IC50 [1]: 2440 nM

CS(=O)(=O)c1ccc(O[C@H]2c3cc(Cl)cc(Cl)c3C[C@@H]2N2CCC[C@@H](NCCF)C2)cc1
Papp at 2 h, 20 µM [2]: 10.5 ×10⁻⁶ cm/s | IC50 [3]: < 300 nM | IC50 [1]: 56 nM

CS(=O)(=O)c1ccc(O[C@H]2c3cc(Cl)cc(F)c3C[C@@H]2N2CCNCC2)cc1 (racemic)
IC50 [1]: 168 nM

CN(C)CCCN(C)[C@H]1Cc2c(Cl)cc(Cl)cc2[C@@H]1Oc1ccc(S(C)(=O)=O)cc1
IC50 [1]: 48 nM

CN(C)CCN(C)[C@H]1Cc2c(Cl)cc(Cl)cc2[C@@H]1Oc1ccc(S(C)(=O)=O)cc1
Papp at 2 h, 20 µM [2]: 8 ×10⁻⁶ cm/s | IC50 [3]: < 300 nM | IC50 [1]: 20 nM

CN1CCCN([C@H]2Cc3c(Cl)cc(Cl)cc3[C@@H]2Oc2ccc(S(C)(=O)=O)cc2)CC1
Papp at 2 h, 20 µM [2]: 6.4 ×10⁻⁶ cm/s | IC50 [3]: < 300 nM | IC50 [1]: 93 nM

CC(=O)Nc1ccc(O[C@H]2c3ccccc3C[C@@H]2N2CCCC2)cc1
IC50 [1]: 2770 nM

CS(=O)(=O)c1ccc(O[C@H]2c3cc(Cl)cc(F)c3C[C@@H]2N2CCCC2)cc1 (racemic)
Papp at 2 h, 20 µM [2]: 28.3 ×10⁻⁶ cm/s | IC50 [3]: < 300 nM | IC50 [1]: 737 nM

Cc1nnc(C)n1-c1ccc(O[C@H]2c3cc(Cl)ccc3C[C@@H]2N2CCCC2)c(Cl)c1
Papp at 2 h, 20 µM [2]: 16.2 ×10⁻⁶ cm/s | IC50 [3]: 2500 nM | IC50 [1]: 94 nM

N[C@@H]1CCCN([C@H]2Cc3ccccc3[C@@H]2Oc2ccc(S(N)(=O)=O)c(Cl)c2Cl)C1
Papp at 2 h, 20 µM [2]: 0.08 ×10⁻⁶ cm/s | IC50 [3]: < 300 nM | IC50 [1]: 650 nM

CS(=O)(=O)c1ccc(O[C@H]2c3ccccc3C[C@@H]2N2CCCC2)c(Cl)c1Cl
Papp at 2 h, 20 µM [2]: 19.2 ×10⁻⁶ cm/s | IC50 [1]: 540 nM

Cc1nnc(C)n1-c1ccc(O[C@H]2c3cc(Cl)ccc3C[C@@H]2N2CC[C@@H](O)C2)c(Cl)c1
Papp at 2 h, 20 µM [2]: 0.5 ×10⁻⁶ cm/s | IC50 [3]: 9500 nM | IC50 [1]: 90 nM

CS(=O)(=O)c1ccc(O[C@H]2c3cc(Cl)cc(Cl)c3C[C@@H]2N2CCNCC2)cc1
Papp at 2 h, 20 µM [2]: 3 ×10⁻⁶ cm/s | IC50 [3]: < 300 nM | IC50 [1]: 22 nM

CCN(CC)C(=O)c1ccc(O[C@H]2c3ccccc3C[C@@H]2N2CCCC2)cc1
IC50 [1]: 2070 nM

Cc1nnc(C)n1-c1ccc(O[C@H]2c3ccccc3C[C@@H]2N2CCCC2)c(C(F)(F)F)c1
IC50 [1]: 118 nM

O=S1(=O)CCCN1c1cccc(O[C@H]2c3ccccc3C[C@@H]2N2CCCC2)c1
IC50 [1]: 1530 nM

CS(=O)(=O)c1ccc(O[C@H]2c3c(Cl)cc(Cl)cc3C[C@@H]2N2CCNCC2)cc1
IC50 [1]: 135 nM

CS(=O)(=O)c1ccc(O[C@H]2c3cc(Cl)cc(Cl)c3C[C@@H]2N2CC[C@@H](O)C2)cc1
Papp at 2 h, 20 µM [2]: 28.6 ×10⁻⁶ cm/s | IC50 [3]: 2400 nM | IC50 [1]: 588 nM

— ChEMBL document CHEMBL3860060, “Discovery and Optimization of 1-Phenoxy-2-aminoindanes as Potent, Selective, and Orally Bioavailable Inhibitors of the Na+/H+ Exchanger Type 3 (NHE3)” (J Med Chem, 2016)
